The target of assay [1] is T1, Potassium voltage-gated channel subfamily A member 5 (Homo sapiens, UniProt P22460). As to the kind of experiment: Inhibition of Kv1.5 expressed in LTK- cells by whole cell patch clamp assay at 1uM. The assay is classed as functional, cell-based.
In assay [2] the target is T1, Potassium voltage-gated channel subfamily A member 5. As to the kind of experiment: Inhibition of Kv1.5 expressed in LTK- cells by whole cell patch clamp assay. The assay is classed as functional, cell-based.
The target in assay [3] is Voltage-gated L-type calcium channel (Homo sapiens, UniProt Q13936+Q13698+Q01668+O60840). Description: Inhibition of L-type calcium channel by FLIPR assay. The assay is classed as functional.
Assay [4] has as its target Voltage-gated inwardly rectifying potassium channel KCNH2 (Homo sapiens, UniProt Q12809). Description: Inhibition of hERG expressed in HEK cells by whole cell patch clamp assay. The assay is classed as toxicity, cell-based, HEK293.
The species named for assay [5] is Homo sapiens. As to the kind of experiment: Selectivity for Kv1.5 compared to L-type calcium channel. The assay is classed as functional.
The species named for assay [6] is Homo sapiens. Description: Selectivity for Kv1.5 compared to hERG. The assay is classed as functional.

T1 sequence (P22460 whole entry): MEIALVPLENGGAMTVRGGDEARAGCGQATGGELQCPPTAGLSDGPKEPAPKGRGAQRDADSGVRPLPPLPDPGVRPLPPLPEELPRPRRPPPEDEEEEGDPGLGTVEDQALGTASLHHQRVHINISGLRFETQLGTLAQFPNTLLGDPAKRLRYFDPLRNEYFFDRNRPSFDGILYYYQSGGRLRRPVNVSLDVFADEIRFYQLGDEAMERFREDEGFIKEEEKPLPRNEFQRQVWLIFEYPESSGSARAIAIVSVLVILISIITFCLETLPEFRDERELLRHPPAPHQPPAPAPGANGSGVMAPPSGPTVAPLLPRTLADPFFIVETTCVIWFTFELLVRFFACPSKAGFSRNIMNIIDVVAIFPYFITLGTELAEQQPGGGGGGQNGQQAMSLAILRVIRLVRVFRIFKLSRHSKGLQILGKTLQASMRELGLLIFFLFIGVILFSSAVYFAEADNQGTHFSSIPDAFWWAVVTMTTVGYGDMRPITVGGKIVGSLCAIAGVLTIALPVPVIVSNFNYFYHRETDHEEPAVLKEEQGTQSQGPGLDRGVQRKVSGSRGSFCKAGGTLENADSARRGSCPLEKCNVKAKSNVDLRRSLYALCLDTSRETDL
Chain of Voltage-gated inwardly rectifying potassium channel KCNH2 (Q12809 whole entry): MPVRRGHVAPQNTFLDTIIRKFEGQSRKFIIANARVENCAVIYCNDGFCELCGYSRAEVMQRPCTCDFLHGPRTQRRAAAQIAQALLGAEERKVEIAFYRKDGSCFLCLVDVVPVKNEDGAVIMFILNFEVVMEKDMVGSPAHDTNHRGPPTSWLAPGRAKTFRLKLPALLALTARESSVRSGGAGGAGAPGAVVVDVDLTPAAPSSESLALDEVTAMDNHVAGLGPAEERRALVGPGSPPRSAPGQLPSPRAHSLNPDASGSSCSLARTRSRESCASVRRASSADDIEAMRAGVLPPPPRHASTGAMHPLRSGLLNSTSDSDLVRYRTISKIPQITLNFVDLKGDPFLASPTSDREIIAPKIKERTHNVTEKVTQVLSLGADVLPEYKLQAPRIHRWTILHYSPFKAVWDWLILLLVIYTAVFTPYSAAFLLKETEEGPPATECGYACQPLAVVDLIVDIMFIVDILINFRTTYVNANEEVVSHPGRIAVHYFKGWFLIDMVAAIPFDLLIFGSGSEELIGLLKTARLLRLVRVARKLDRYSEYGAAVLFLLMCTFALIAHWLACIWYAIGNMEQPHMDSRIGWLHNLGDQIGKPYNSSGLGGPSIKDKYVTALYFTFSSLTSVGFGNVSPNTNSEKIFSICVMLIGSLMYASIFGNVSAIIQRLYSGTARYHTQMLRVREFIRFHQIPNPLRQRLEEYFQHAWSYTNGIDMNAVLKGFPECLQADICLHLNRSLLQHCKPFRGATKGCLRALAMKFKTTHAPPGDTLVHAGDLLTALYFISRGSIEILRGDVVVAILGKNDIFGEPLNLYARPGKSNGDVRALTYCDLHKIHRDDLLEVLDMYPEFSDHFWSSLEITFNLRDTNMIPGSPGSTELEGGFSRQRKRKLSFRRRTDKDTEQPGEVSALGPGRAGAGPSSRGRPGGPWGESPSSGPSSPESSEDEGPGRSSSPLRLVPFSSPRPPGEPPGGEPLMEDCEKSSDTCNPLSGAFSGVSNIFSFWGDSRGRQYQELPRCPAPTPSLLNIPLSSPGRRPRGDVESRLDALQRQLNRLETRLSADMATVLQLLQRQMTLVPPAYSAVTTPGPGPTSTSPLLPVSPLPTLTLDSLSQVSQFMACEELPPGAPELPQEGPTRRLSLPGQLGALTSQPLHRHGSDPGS

As for `CCc1[nH]c2c(c1CC)/C(=N/OC(=O)Nc1ccc(Cl)cc1)CCC2`, the inhibition in assay [1] came to 87%. Still for that read-out and setting: with `CCc1c(C)[nH]c2c1/C(=N/OC(=O)Nc1ccc(C)cc1)CCC2` the figure was 85%. In the case of `CCc1c2c(n(C)c1CC)CCC/C2=N\OC(=O)Nc1ccccc1`, the results for the IC50 in assay [2], in assay [3] and in assay [4] were 21 nM, 20 µM and > 30 µM, respectively. For the same compound, the Ratio in the assay listed under Homo sapiens [5] and in the assay listed under Homo sapiens [6] was > 450 each time. The compound further displayed an inhibition in assay [1] of 99%. In turn, `CCc1c2c(n(C)c1CC)CCC/C2=N\OC(=O)Nc1ccc(C(C)=O)cc1` showed an inhibition in assay [1] of 92%. The same measure, in the same setting: with `CCc1c(C)[nH]c2c1/C(=N/OC(=O)Nc1ccc(OC)cc1)CCC2` the figure was 90%; with `CCc1c(C)[nH]c2c1/C(=N/OC(=O)Nc1ccc(C(C)(C)C)cc1)CCC2`, 6%; with `CCc1c(C)[nH]c2c1/C(=N/OC(=O)NCCc1ccccc1)CCC2`, 76%. On the same count and under the same terms, with `CCc1c(C)[nH]c2c1/C(=N/OC(=O)NCCc1cccnc1)CCC2` the figure was 25%; with `CCc1c(C)[nH]c2c1/C(=N/OC(=O)Nc1cccc(SC)c1)CCC2`, 73%. In the case of `CCc1c(C)[nH]c2c1/C(=N/OC(=O)Nc1ccccc1)CCC2`, the values for the IC50 in assay [2], in assay [3] and in assay [4] were 67 nM, > 30 µM and > 30 µM, respectively. Further, the Ratio in the assay filed under Homo sapiens [5] and in the assay filed under Homo sapiens [6] was > 450 each time. For the same compound, in assay [1], the inhibition amounted to 91%. In the case of `CCc1[nH]c2c(c1CC)/C(=N/OC(=O)Nc1ccccc1)CCC2`, the inhibition in assay [1] stood at 84%. On the same count and under the same terms, with `CCc1c(C)[nH]c2c1/C(=N/OC(=O)Nc1ccc(C(C)C)cc1)CCC2` the figure was 51%; with `CCc1c(C)[nH]c2c1/C(=N/OC(=O)NCc1ccccc1)CCC2`, 70%; with `Cc1[nH]c2c(c1C)/C(=N/OC(=O)Nc1ccccc1)CCC2`, 57%. On the same count and under the same terms, with `CCc1c(C)[nH]c2c1/C(=N/OC(=O)Nc1ccccc1SC)CCC2` the figure was 41%; with `O=C(Nc1ccccc1)O/N=C1\CCCC2=C1C1CCCC1N2` (stereo unspecified), 79%. `CCc1c(C)[nH]c2c1/C(=N/OC(=O)Nc1ccc(C#N)cc1)CCC2` came in with an inhibition in assay [1] of 95%. For `CCc1c(C)[nH]c2c1/C(=N/OC(=O)NCCc1ccccn1)CCC2`, the half-maximal inhibitory concentration (IC50) in assay [2] was 547 nM. In addition, in assay [1], the inhibition turned out to be 91%. As for `CCc1c2c(n(CC)c1C)CCC/C2=N\OC(=O)Nc1ccc(C(C)=O)cc1`, the inhibition in assay [1] was found to be 71%.

For the compound `CCc1c2c(n(CC)c1C)CCC/C2=N\OC(=O)Nc1ccccc1`, the inhibition in assay [1] was 35%. Same read-out and setting: with `CCc1c(C)[nH]c2c1/C(=N/OC(=O)Nc1ccc(Cl)cc1)CCC2` the figure was 91%. Still for that read-out and setting: with `CC(=O)c1ccc(NC(=O)O/N=C2\CCCC3=C2C2CCCC2N3)cc1` (stereo unspecified) the figure was 79%.

On to `CCc1c2c(n(C)c1C)CCC/C2=N\OC(=O)Nc1ccc(C(C)=O)cc1`, for which the half-maximal inhibitory concentration (IC50) in assay [2] turned out to be 368 nM. The compound further had an inhibition in assay [1] of 96%. In the case of `CC(=O)c1ccc(NC(=O)O/N=C2\CCCc3c2c(C(C)C)c(C)n3C)cc1`, the inhibition in assay [1] turned out to be 96%.

For `CCc1c(C)[nH]c2c1/C(=N/OC(=O)Nc1ccc(SC)cc1)CCC2`, in assay [2], the 50% inhibitory concentration (IC50) was found to be 350 nM. The compound also yielded an inhibition in assay [1] of 90%. In turn, `CCc1c(C)[nH]c2c1/C(=N/OC(=O)NCCc1ccncc1)CCC2` came in with an inhibition in assay [1] of 20%.

In turn, `CCc1c(C)[nH]c2c1/C(=N/OC(=O)Nc1ccc(F)cc1)CCC2` showed an IC50 in assay [2] of 275 nM. Further, the inhibition in assay [1] came to 90%.

`CC(=O)c1ccc(NC(=O)O/N=C2\CCCc3[nH]c(C)c(C)c32)cc1` yielded an inhibition in assay [1] of 60%. Still for that read-out and setting: with `Cc1[nH]c2c(c1C)/C(=N/OC(=O)Nc1ccc(Cl)cc1)CCC2` the figure was 78%; with `CCc1c2c(n(C)c1C)CCC/C2=N\OC(=O)Nc1ccccc1`, 77%; with `O=C(Nc1ccc(Cl)cc1)O/N=C1\CCCC2=C1C1CCCC1N2` (stereo unspecified), 58%. In turn, `CCc1c(C)[nH]c2c1/C(=N/OC(=O)Nc1ccc(C(C)=O)cc1)CCC2` yielded an inhibition in assay [1] of 91%.

Values taken from ChEMBL document CHEMBL1137274, “Discovery and synthesis of tetrahydroindolone-derived carbamates as Kv1.5 blockers” (Bioorg Med Chem Lett, 2006).
